From patent publication US20260176320A1, “MODULATORS OF G-PROTEIN COUPLED RECEPTORS” (priority 2018, published 2026) come the findings set out here.

Like-named read-outs stand apart in the source and are kept apart here. Bounds are passed on as bounds.

Common to all, as to assay type: cell-based
Test [1] has as its target T1, GLP-1R (Homo sapiens, UniProt P43220). The test is described as follows: HitHunter cAMP assay (GLP-1R). Conditions: cAMP; for Emax: read-out: (Emax) GLP-1R. A digest of the protocol: (§1)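 Suspension cells (10,000/well) in HBSS with 10 mM HEPES, 625 μM IBMX, 0.2% BSA exposed to 22-point 2-fold agonist series in duplicate for 30 min at room temperature. cAMP measured by antibody immunocompetition with overnight development, luminescence read-out.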

In the next test the target is T2, GIP-R (Homo sapiens, UniProt P48546).
T2 sequence (P48546 22-466): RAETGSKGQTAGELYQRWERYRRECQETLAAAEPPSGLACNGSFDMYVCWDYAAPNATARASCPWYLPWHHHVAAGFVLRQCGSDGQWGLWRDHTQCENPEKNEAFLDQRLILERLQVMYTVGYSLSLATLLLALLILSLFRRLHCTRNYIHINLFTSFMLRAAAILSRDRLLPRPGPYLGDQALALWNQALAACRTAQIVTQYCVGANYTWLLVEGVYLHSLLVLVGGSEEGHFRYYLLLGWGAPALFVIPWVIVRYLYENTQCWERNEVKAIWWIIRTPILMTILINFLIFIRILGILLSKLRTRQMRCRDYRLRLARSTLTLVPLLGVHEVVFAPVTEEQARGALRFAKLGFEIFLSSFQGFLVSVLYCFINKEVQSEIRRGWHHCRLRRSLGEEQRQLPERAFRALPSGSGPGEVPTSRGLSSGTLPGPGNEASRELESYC
The experiment in a line: HitHunter cAMP assay (GIP-R). Conditions: cAMP; for Emax: read-out: (Emax) GIP-R. A digest of the protocol:
as §1
(In general: Changes in cAMP serve as a functional read-out for many G protein-coupled receptors.)

The target in test [2] is T1, GLP-1R. The test is described as follows: PathHunter β-arrestin assay. The gist of the method:
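Cells (5,000/well) plated overnight, then exposed to a 22-point 2-fold agonist dilution series in medium with 0.2% BSA for 90 min at 37 °C, 5% CO2. PathHunter detection reagent added; after 3 h at room temperature in the dark, luminescence read.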

[3] abbreviates: Table 3, read-out: EC50 GLP-1R/nM.
Where [4] appears, read: Table 3A, read-out: EC50 GLP-1R/nM.
Where [5] appears, read: Table 3, read-out: EC50 GIP-R/nM.
Where [6] appears, read: PathHunter β-arrestin assay, read-out: β-arrestin activity EC50.
The mark [7] stands for this setting: Table 3A, read-out: EC50 GIP-R/nM.

T1 sequence (P43220 24-463): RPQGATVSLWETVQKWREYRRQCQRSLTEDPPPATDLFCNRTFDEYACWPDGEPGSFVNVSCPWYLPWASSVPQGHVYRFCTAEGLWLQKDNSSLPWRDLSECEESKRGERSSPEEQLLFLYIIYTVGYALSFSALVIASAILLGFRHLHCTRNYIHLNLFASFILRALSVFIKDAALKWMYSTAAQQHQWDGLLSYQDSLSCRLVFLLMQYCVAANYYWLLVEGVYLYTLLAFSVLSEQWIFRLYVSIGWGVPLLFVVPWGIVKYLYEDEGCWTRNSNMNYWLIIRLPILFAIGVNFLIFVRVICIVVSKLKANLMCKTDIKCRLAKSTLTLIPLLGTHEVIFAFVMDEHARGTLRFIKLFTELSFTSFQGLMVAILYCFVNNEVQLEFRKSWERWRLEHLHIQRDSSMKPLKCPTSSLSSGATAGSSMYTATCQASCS

Regarding `CCCCCCCCCCCCCCCC(=O)N[C@@H](CCC(=O)NCCCC[C@H](NC(=O)[C@H](CO)NC(=O)[C@@H]1CCCN1C(=O)[C@@H]1CCCN1C(=O)[C@@H]1CCCN1C(=O)[C@H](C)NC(=O)CNC(=O)[C@H](CO)NC(=O)[C@H](CO)NC(=O)[C@@H]1CCCN1C(=O)CNC(=O)CNC(=O)[C@H](C)NC(=O)[C@H](CC(C)C)NC(=O)[C@H](CC(C)C)NC(=O)[C@H](Cc1c[nH]c2ccccc12)NC(=O)[C@H](CC(N)=O)NC(=O)[C@@H](NC(=O)[C@H](Cc1ccccc1)NC(=O)[C@H](CCC(=O)O)NC(=O)C(C)(C)NC(=O)[C@H](C)NC(=O)[C@H](C)NC(=O)[C@H](CCC(N)=O)NC(=O)[C@H](CCCCN)NC(=O)[C@H](CC(=O)O)NC(=O)[C@H](CC(C)C)NC(=O)[C@H](Cc1ccc(O)cc1)NC(=O)[C@@H](NC(=O)[C@H](CO)NC(=O)[C@H](Cc1ccc(O)cc1)NC(=O)[C@H](CC(=O)O)NC(=O)[C@H](CO)NC(=O)[C@@H](NC(=O)[C@H](Cc1ccccc1)NC(=O)[C@@H](NC(=O)CNC(=O)[C@H](CCC(=O)O)NC(=O)CSCC(=O)NCCN1CCNC(=O)C1)[C@@H](C)O)[C@@H](C)O)[C@@H](C)CC)C(C)C)C(N)=O)C(=O)O` [Compound 37], the Emax at GLP-1R [1] (Table 3) was 110%; at GLP-1R [1] (Table 3A), 110%; on GIP-R (Table 3), 10 to 21%; at GIP-R (Table 3A), 10 to 21%. Also, the EC50 is less than 1 nM on GLP-1R [1] (setting [3]), less than 1 nM at GLP-1R [1] (setting [4]), 1 to 10 nM on GIP-R (setting [5]) and more than 1000 nM on GLP-1R [2] (setting [6]).
Regarding `CC[C@H](C)[C@H](NC(=O)[C@H](CO)NC(=O)[C@H](Cc1ccc(O)cc1)NC(=O)[C@H](CC(=O)O)NC(=O)[C@H](CO)NC(=O)[C@@H](NC(=O)[C@H](Cc1ccccc1)NC(=O)[C@@H](NC(=O)CNC(=O)[C@H](CCC(=O)O)NC(=O)CCCCNC(=O)CN1C(=O)CSC1=O)[C@@H](C)O)[C@@H](C)O)C(=O)N[C@@H](Cc1ccc(O)cc1)C(=O)N[C@@H](CC(C)C)C(=O)N[C@@H](CC(=O)O)C(=O)N[C@@H](CCCCN)C(=O)N[C@@H](CCC(N)=O)C(=O)N[C@@H](C)C(=O)N[C@@H](C)C(=O)NC(C)(C)C(=O)N[C@@H](CCC(=O)O)C(=O)N[C@@H](Cc1ccccc1)C(=O)N[C@H](C(=O)N[C@@H](CC(N)=O)C(=O)N[C@@H](Cc1c[nH]c2ccccc12)C(=O)N[C@@H](CC(C)C)C(=O)N[C@@H](CC(C)C)C(=O)N[C@@H](C)C(=O)NCC(=O)NCC(=O)N1CCC[C@H]1C(=O)N[C@@H](CO)C(=O)N[C@@H](CO)C(=O)NCC(=O)N[C@@H](C)C(=O)N1CCC[C@H]1C(=O)N1CCC[C@H]1C(=O)N1CCC[C@H]1C(=O)N[C@@H](CO)C(=O)N[C@@H](CCCCN)C(N)=O)C(C)C` [Compound 177], the maximal response (Emax) on GLP-1R [1] (Table 3) and at GLP-1R [1] (Table 3A) was 96% throughout. In addition, the EC50 is 1 to 10 nM at GLP-1R [1] (setting [3]); 1 to 10 nM on GLP-1R [1] (setting [4]); more than 1000 nM on GIP-R (setting [5]); more than 1000 nM at GIP-R (setting [7]); more than 1000 nM at GLP-1R [2] (setting [6]). Moreover, on GIP-R (read-out: (Emax) GIP-R at 1 μM, Table 3, at 1 μM), the Emax at 1 µM stood at 9%.
`CC[C@H](C)[C@H](NC(=O)[C@H](CO)NC(=O)[C@H](Cc1ccc(O)cc1)NC(=O)[C@H](CC(=O)O)NC(=O)[C@H](CO)NC(=O)[C@@H](NC(=O)[C@H](Cc1ccccc1)NC(=O)[C@@H](NC(=O)CNC(=O)[C@H](CCC(=O)O)NC(=O)CCCCC(=O)NCCN1C(=O)c2ccccc2C1=O)[C@@H](C)O)[C@@H](C)O)C(=O)N[C@@H](Cc1ccc(O)cc1)C(=O)N[C@@H](CC(C)C)C(=O)N[C@@H](CC(=O)O)C(=O)N[C@@H](CCCCN)C(=O)N[C@@H](CCC(N)=O)C(=O)N[C@@H](C)C(=O)N[C@@H](C)C(=O)NC(C)(C)C(=O)N[C@@H](CCC(=O)O)C(=O)N[C@@H](Cc1ccccc1)C(=O)N[C@H](C(=O)N[C@@H](CC(N)=O)C(=O)N[C@@H](Cc1c[nH]c2ccccc12)C(=O)N[C@@H](CC(C)C)C(=O)N[C@@H](CC(C)C)C(=O)N[C@@H](C)C(=O)NCC(=O)NCC(=O)N1CCC[C@H]1C(=O)N[C@@H](CO)C(=O)N[C@@H](CO)C(=O)NCC(=O)N[C@@H](C)C(=O)N1CCC[C@H]1C(=O)N1CCC[C@H]1C(=O)N1CCC[C@H]1C(=O)N[C@@H](CO)C(=O)N[C@@H](CCCCN)C(N)=O)C(C)C` [Compound 181]: the EC50 on GLP-1R [1] (EC50 GLP-1R/nM, Table 3) was 10 to 100 nM; at GLP-1R [1] (EC50 GLP-1R/nM, Table 3A), 10 to 100 nM; on GIP-R (EC50 GIP-R/nM, Table 3), 1 to 10 nM; at GIP-R (EC50 GIP-R/nM, Table 3A), 1 to 10 nM; at GLP-1R [2], more than 1000 nM. Also, the maximum response (Emax) on GLP-1R [1] (Table 3) was 103%; at GLP-1R [1] (Table 3A), 103%; at GIP-R (Table 3), 102%; at GIP-R (Table 3A), 102%.
For `CCCCCCCCCCCCCCCC(=O)N[C@@H](CCC(=O)NCCCC[C@H](NC(=O)[C@H](CO)NC(=O)[C@@H]1CCCN1C(=O)[C@@H]1CCCN1C(=O)[C@@H]1CCCN1C(=O)[C@H](C)NC(=O)CNC(=O)[C@H](CO)NC(=O)[C@H](CO)NC(=O)[C@@H]1CCCN1C(=O)CNC(=O)CNC(=O)[C@H](C)NC(=O)[C@H](CC(C)C)NC(=O)[C@H](CC(C)C)NC(=O)[C@H](Cc1c[nH]c2ccccc12)NC(=O)[C@H](CC(N)=O)NC(=O)[C@@H](NC(=O)[C@H](Cc1ccccc1)NC(=O)[C@H](CCC(=O)O)NC(=O)C(C)(C)NC(=O)[C@H](C)NC(=O)[C@H](C)NC(=O)[C@H](CCC(N)=O)NC(=O)[C@H](CCCCN)NC(=O)[C@H](CC(=O)O)NC(=O)[C@H](CC(C)C)NC(=O)[C@H](Cc1ccc(O)cc1)NC(=O)[C@@H](NC(=O)[C@H](CO)NC(=O)[C@H](Cc1ccc(O)cc1)NC(=O)[C@H](CC(=O)O)NC(=O)[C@H](CO)NC(=O)[C@@H](NC(=O)[C@H](Cc1ccccc1)NC(=O)[C@@H](NC(=O)CNC(=O)[C@H](CCC(=O)O)NC(=O)C(C)(C)C(=O)NCCN1CCCCC1=O)[C@@H](C)O)[C@@H](C)O)[C@@H](C)CC)C(C)C)C(N)=O)C(=O)O` [Compound 19], the Emax on GLP-1R [1] (Table 3) was found to be 93%; at GLP-1R [1] (Table 3A), 93%; at GIP-R (Table 3), 50%; at GIP-R (Table 3A), 50%. Besides, the EC50 on GLP-1R [1] (setting [3]) is less than 0.1 nM; at GLP-1R [1] (setting [4]) it was less than 0.1 nM; on GIP-R (setting [5]), 0.1 to 1 nM; at GIP-R (setting [7]), 0.1 to 1 nM; on GLP-1R [2] (setting [6]), less than 10 nM.
Consider `CCCCCCCCCCCCCCCC(=O)N[C@@H](CCC(=O)NCCCC[C@H](NC(=O)[C@H](CO)NC(=O)[C@@H]1CCCN1C(=O)[C@@H]1CCCN1C(=O)[C@@H]1CCCN1C(=O)[C@H](C)NC(=O)CNC(=O)[C@H](CO)NC(=O)[C@H](CO)NC(=O)[C@@H]1CCCN1C(=O)CNC(=O)CNC(=O)[C@H](C)NC(=O)[C@H](CC(C)C)NC(=O)[C@H](CC(C)C)NC(=O)[C@H](Cc1c[nH]c2ccccc12)NC(=O)[C@H](CC(N)=O)NC(=O)[C@@H](NC(=O)[C@H](Cc1ccccc1)NC(=O)[C@H](CCC(=O)O)NC(=O)C(C)(C)NC(=O)[C@H](C)NC(=O)[C@H](C)NC(=O)[C@H](CCC(N)=O)NC(=O)[C@H](CCCCN)NC(=O)[C@H](CC(=O)O)NC(=O)[C@H](CC(C)C)NC(=O)[C@H](Cc1ccc(O)cc1)NC(=O)[C@@H](NC(=O)[C@H](CO)NC(=O)[C@H](Cc1ccc(O)cc1)NC(=O)[C@H](CC(=O)O)NC(=O)[C@H](CO)NC(=O)[C@@H](NC(=O)[C@H](Cc1ccccc1)NC(=O)[C@@H](NC(=O)CNC(=O)[C@H](CCC(=O)O)NC(=O)CSCC(=O)NCCN1CCCN(C)C1=O)[C@@H](C)O)[C@@H](C)O)[C@@H](C)CC)C(C)C)C(N)=O)C(=O)O` [Compound 23], for which the EC50 on GLP-1R [1] (EC50 GLP-1R/nM, Table 3) is 1 to 10 nM; on GLP-1R [1] (EC50 GLP-1R/nM, Table 3A), 1 to 10 nM; at GIP-R (EC50 GIP-R/nM, Table 3), 1 to 10 nM; at GIP-R (EC50 GIP-R/nM, Table 3A) it was 1 to 10 nM; at GLP-1R [2] it was more than 1000 nM. The Emax at GLP-1R [1] (Table 3) was 83%; at GLP-1R [1] (Table 3A), 83%; on GIP-R (Table 3) it was 37%; at GIP-R (Table 3A) it was 37%.

As a reminder, the Emax is the size of the effect at its maximum, as opposed to the concentration needed.
